Laboratory results as given in patent publication US20250255867A1 (Kadmon Corporation, LLC, priority 2022, published 2025).

Method: All responses were assessed by the investigators.
Reported Adverse Events. […] All-cause mortality data collected during the study were assessed for all enrolled participants. Disease progression related death was not reported as AE.
Number of Participants With Treatment-emergent Adverse Events (TEAEs), and Treatment-emergent Serious Adverse Events (TESAEs). […] TEAEs included both SAEs and non-SAEs. […] Analysis was performed on safety population which included all participants who received at least 1 dose of study medication.

## CC(C)NC(=O)COc1cccc(-c2nc(Nc3ccc4[nH]ncc4c3)c3ccccc3n2)c1 [Belumosudil, 2-{3-[4-(1H-indazol-5-ylamino)-2-quinazolinyl]phenoxy}-N-(propan-2-yl) acetamide]
Cohort 1 200 mg QD
  SAE Lipomatosis, # events: 1
  SAE Lipomatosis, affected/at risk: 1/17
  SAE Metastases to meninges, # events: 1
  SAE Metastases to meninges, affected/at risk: 1/17
  SAE Muscular weakness, # events: 0
  SAE Muscular weakness, affected/at risk: 0/17
  SAE Myelodysplastic syndrome, # events: 0
  SAE Myelodysplastic syndrome, affected/at risk: 0/17
  SAE Non-cardiac chest pain, # events: 0
  SAE Non-cardiac chest pain, affected/at risk: 0/17
  SAE Obliterative bronchiolitis, # events: 1
  SAE Obliterative bronchiolitis, affected/at risk: 1/17
  SAE Pericardial effusion, # events: 0
  SAE Pericardial effusion, affected/at risk: 0/17
  SAE Pleural effusion, # events: 0
  SAE Pleural effusion, affected/at risk: 0/17
  SAE Pneumonia viral, # events: 0
  SAE Pneumonia viral, affected/at risk: 0/17
  SAE Pneumonia, # events: 2
  SAE Pneumonia, affected/at risk: 1/17
  SAE Pregnancy of partner, # events: 0
  SAE Pregnancy of partner, affected/at risk: 0/17
  SAE Proteinuria, # events: 1
  SAE Proteinuria, affected/at risk: 1/17
  SAE Respirovirus test positive, # events: 0
  SAE Respirovirus test positive, affected/at risk: 0/17
  SAE Small intestinal obstruction, # events: 0
  SAE Small intestinal obstruction, affected/at risk: 0/17
  SAE Stenotrophomonas infection, # events: 0
  SAE Stenotrophomonas infection, affected/at risk: 0/17
  SAE Urinary retention, # events: 0
  SAE Urinary retention, affected/at risk: 0/17
  SAE Urinary tract infection, # events: 0
  SAE Urinary tract infection, affected/at risk: 0/17
  SAE Varicella zoster virus infection, # events: 0
  SAE Varicella zoster virus infection, affected/at risk: 0/17
  SAE total, affected/at risk: 5/17
  Sinus pain: # Events: 2
  Sinus pain: Affected/At Risk: 2/17
  Sinus pain: Affected/At Risk (%): (11.76%)
  Sinusitis: # Events: 1
  Sinusitis: Affected/At Risk: 1/17
  Sinusitis: Affected/At Risk (%): (5.88%)
  Skin abrasion: # Events: 0
  Skin abrasion: Affected/At Risk: 0/17
  Skin abrasion: Affected/At Risk (%): (0%)
  Skin lesion: # Events: 0
  Skin lesion: Affected/At Risk: 0/17
  Skin lesion: Affected/At Risk (%): (0%)
  Skin papilloma: # Events: 1
  Skin papilloma: Affected/At Risk: 1/17
  Skin papilloma: Affected/At Risk (%): (5.88%)
  Spinal compression fracture: # Events: 1
  Spinal compression fracture: Affected/At Risk: 1/17
  Spinal compression fracture: Affected/At Risk (%): (5.88%)
  Squamous cell carcinoma of skin: # Events: 0
  Squamous cell carcinoma of skin: Affected/At Risk: 0/17
  Squamous cell carcinoma of skin: Affected/At Risk (%): (0%)
  Stomatitis: # Events: 2
  Stomatitis: Affected/At Risk: 1/17
  Stomatitis: Affected/At Risk (%): (5.88%)
  Superior vena cava syndrome: # Events: 0
  Superior vena cava syndrome: Affected/At Risk: 0/17
  Superior vena cava syndrome: Affected/At Risk (%): (0%)
  Tachycardia: # Events: 0
  Tachycardia: Affected/At Risk: 0/17
  Tachycardia: Affected/At Risk (%): (0%)
  Tendonitis: # Events: 0
  Tendonitis: Affected/At Risk: 0/17
  Tendonitis: Affected/At Risk (%): (0%)
  Testicular pain: # Events: 1
  Testicular pain: Affected/At Risk: 1/17
  Testicular pain: Affected/At Risk (%): (5.88%)
  Testicular swelling: # Events: 1
  Testicular swelling: Affected/At Risk: 1/17
  Testicular swelling: Affected/At Risk (%): (5.88%)
  Thoracic spinal stenosis: # Events: 1
  Thoracic spinal stenosis: Affected/At Risk: 1/17
  Thoracic spinal stenosis: Affected/At Risk (%): (5.88%)
  Thrombocytopenia: # Events: 0
  Thrombocytopenia: Affected/At Risk: 0/17
  Thrombocytopenia: Affected/At Risk (%): (0%)
  Thrombocytosis: # Events: 1
  Thrombocytosis: Affected/At Risk: 1/17
  Thrombocytosis: Affected/At Risk (%): (5.88%)
  Tinea pedis: # Events: 0
  Tinea pedis: Affected/At Risk: 0/17
  Tinea pedis: Affected/At Risk (%): (0%)
  Tooth fracture: # Events: 0
  Tooth fracture: Affected/At Risk: 0/17
  Tooth fracture: Affected/At Risk (%): (0%)
  Total Other Adverse Events: Affected/At Risk: 17/17
  Total Other Adverse Events: Affected/At Risk (%): (100%)
  Transfusion reaction: # Events: 1
  Transfusion reaction: Affected/At Risk: 1/17
  Transfusion reaction: Affected/At Risk (%): (5.88%)
  Tremor: # Events: 3
  Tremor: Affected/At Risk: 2/17
  Tremor: Affected/At Risk (%): (11.76%)
  Type 2 diabetes mellitus: # Events: 1
  Type 2 diabetes mellitus: Affected/At Risk: 1/17
  Type 2 diabetes mellitus: Affected/At Risk (%): (5.88%)
  Ulcerative keratitis: # Events: 0
  Ulcerative keratitis: Affected/At Risk: 0/17
  Ulcerative keratitis: Affected/At Risk (%): (0%)
  Upper respiratory tract infection: # Events: 16
  Upper respiratory tract infection: Affected/At Risk: 9/17
  Upper respiratory tract infection: Affected/At Risk (%): (52.94%)
  Upper-airway cough syndrome: # Events: 0
  Upper-airway cough syndrome: Affected/At Risk: 0/17
  Upper-airway cough syndrome: Affected/At Risk (%): (0%)
  Urinary retention: # Events: 0
  Urinary retention: Affected/At Risk: 0/17
  Urinary retention: Affected/At Risk (%): (0%)
  Urinary tract infection: # Events: 0
  Urinary tract infection: Affected/At Risk: 0/17
  Urinary tract infection: Affected/At Risk (%): (0%)
  Urinary tract pain: # Events: 0
  Urinary tract pain: Affected/At Risk: 0/17
  Urinary tract pain: Affected/At Risk (%): (0%)
  Urine output decreased: # Events: 1
  Urine output decreased: Affected/At Risk: 1/17
  Urine output decreased: Affected/At Risk (%): (5.88%)
  Vascular access complication: # Events: 0
  Vascular access complication: Affected/At Risk: 0/17
  Vascular access complication: Affected/At Risk (%): (0%)
  Vertigo: # Events: 2
  Vertigo: Affected/At Risk: 2/17
  Vertigo: Affected/At Risk (%): (11.76%)
  Vision blurred: # Events: 0
  Vision blurred: Affected/At Risk: 0/17
  Vision blurred: Affected/At Risk (%): (0%)
  Vomiting: # Events: 4
  Vomiting: Affected/At Risk: 2/17
  Vomiting: Affected/At Risk (%): (11.76%)
  Weight decreased: # Events: 1
  Weight decreased: Affected/At Risk: 1/17
  Weight decreased: Affected/At Risk (%): (5.88%)
  Weight increased: # Events: 9
  Weight increased: Affected/At Risk: 3/17
  Weight increased: Affected/At Risk (%): (17.65%)
  White blood cell count decreased: # Events: 1
  White blood cell count decreased: Affected/At Risk: 1/17
  White blood cell count decreased: Affected/At Risk (%): (5.88%)
Cohort 1 200 mg QD n=17
  ALT/AST increased all grade, No.: 11
  ALT/AST increased grade ≥3, No.: 2
  Anemia grade ≥3, No.: 2
  Any AE, No. of patients: 17
  Cough all grade, No.: 1
  Death, No.: 0
  Diarrhea all grade, No.: 6
  Drug-related AE, No.: 8
  Drug-related SAE, No.: 0
  Dyspnea all grade, No.: 3
  Dyspnea grade ≥3, No.: 1
  Fatigue all grade, No.: 6
  Grade ≥3 AE, No.: 9
  Headache all grade, No.: 4
  Hyperglycemia grade ≥3, No.: 2
  Hypertension all grade, No.: 5
  Hypoxia grade ≥3, No.: 1
  Lung infection or pneumonia grade ≥3, No.: 1
  Nausea all grade, No.: 6
  Peripheral edema all grade, No.: 3
  SAE, No.: 5
  URI all grade, No.: 9
Cohort 2
  Patients with relative dose intensity >95%: 63%
Cohort 2 200 mg BID
  Abdominal distension: # Events: 0
  Abdominal distension: Affected/At Risk: 0/16
  Abdominal distension: Affected/At Risk (%): (0%)
  Abdominal pain upper: # Events: 1
  Abdominal pain upper: Affected/At Risk: 1/16
  Abdominal pain upper: Affected/At Risk (%): (6.25%)
  Abdominal pain: # Events: 4
  Abdominal pain: Affected/At Risk: 2/16
  Abdominal pain: Affected/At Risk (%): (12.5%)
  Actinic keratosis: # Events: 1
  Actinic keratosis: Affected/At Risk: 1/16
  Actinic keratosis: Affected/At Risk (%): (6.25%)
  Acute kidney injury: # Events: 2
  Acute kidney injury: Affected/At Risk: 2/16
  Acute kidney injury: Affected/At Risk (%): (12.5%)
  Acute respiratory distress syndrome: # Events: 0
  Acute respiratory distress syndrome: Affected/At Risk: 0/16
  Acute respiratory distress syndrome: Affected/At Risk (%): (0%)
  Adrenal insufficiency: # Events: 0
  Adrenal insufficiency: Affected/At Risk: 0/16
  Adrenal insufficiency: Affected/At Risk (%): (0%)
  Alanine aminotransferase increased: # Events: 4
  Alanine aminotransferase increased: Affected/At Risk: 3/16
  Alanine aminotransferase increased: Affected/At Risk (%): (18.75%)
  Anaemia: # Events: 8
  Anaemia: Affected/At Risk: 4/16
  Anaemia: Affected/At Risk (%): (25%)
  Anal incontinence: # Events: 0
  Anal incontinence: Affected/At Risk: 0/16
  Anal incontinence: Affected/At Risk (%): (0%)
  Anxiety: # Events: 3
  Anxiety: Affected/At Risk: 2/16
  Anxiety: Affected/At Risk (%): (12.5%)
  Arthralgia: # Events: 1
  Arthralgia: Affected/At Risk: 1/16
  Arthralgia: Affected/At Risk (%): (6.25%)
  Aspartate aminotransferase increased: # Events: 2
  Aspartate aminotransferase increased: Affected/At Risk: 2/16
  Aspartate aminotransferase increased: Affected/At Risk (%): (12.5%)
  Asthenia: # Events: 1
  Asthenia: Affected/At Risk: 1/16
  Asthenia: Affected/At Risk (%): (6.25%)
  Atelectasis: # Events: 0
  Atelectasis: Affected/At Risk: 0/16
  Atelectasis: Affected/At Risk (%): (0%)
  Back pain: # Events: 2
  Back pain: Affected/At Risk: 2/16
  Back pain: Affected/At Risk (%): (12.5%)
  Balance disorder: # Events: 1
  Balance disorder: Affected/At Risk: 1/16
  Balance disorder: Affected/At Risk (%): (6.25%)
  Basal cell carcinoma: # Events: 1
  Basal cell carcinoma: Affected/At Risk: 1/16
  Basal cell carcinoma: Affected/At Risk (%): (6.25%)
  Benign prostatic hyperplasia: # Events: 0
  Benign prostatic hyperplasia: Affected/At Risk: 0/16
  Benign prostatic hyperplasia: Affected/At Risk (%): (0%)
  Blepharitis: # Events: 0
  Blepharitis: Affected/At Risk: 0/16
  Blepharitis: Affected/At Risk (%): (0%)
  Blister: # Events: 3
  Blister: Affected/At Risk: 2/16
  Blister: Affected/At Risk (%): (12.5%)
  Blood alkaline phosphatase increased: # Events: 1
  Blood alkaline phosphatase increased: Affected/At Risk: 1/16
  Blood alkaline phosphatase increased: Affected/At Risk (%): (6.25%)
  Blood chloride decreased: # Events: 1
  Blood chloride decreased: Affected/At Risk: 1/16
  Blood chloride decreased: Affected/At Risk (%): (6.25%)
  Blood cholesterol increased: # Events: 0
  Blood cholesterol increased: Affected/At Risk: 0/16
  Blood cholesterol increased: Affected/At Risk (%): (0%)
  Blood creatine increased: # Events: 1
  Blood creatine increased: Affected/At Risk: 1/16
  Blood creatine increased: Affected/At Risk (%): (6.25%)
  Blood creatine phosphokinase increased: # Events: 0
  Blood creatine phosphokinase increased: Affected/At Risk: 0/16
  Blood creatine phosphokinase increased: Affected/At Risk (%): (0%)
  Blood creatinine increased: # Events: 1
  Blood creatinine increased: Affected/At Risk: 1/16
  Blood creatinine increased: Affected/At Risk (%): (6.25%)
  Blood loss anaemia: # Events: 0
  Blood loss anaemia: Affected/At Risk: 0/16
  Blood loss anaemia: Affected/At Risk (%): (0%)
  Bronchial secretion retention: # Events: 1
  Bronchial secretion retention: Affected/At Risk: 1/16
  Bronchial secretion retention: Affected/At Risk (%): (6.25%)
  Bronchitis: # Events: 0
  Bronchitis: Affected/At Risk: 0/16
  Bronchitis: Affected/At Risk (%): (0%)
  Bronchoscopy: # Events: 0
  Bronchoscopy: Affected/At Risk: 0/16
  Bronchoscopy: Affected/At Risk (%): (0%)
  Catheter site haemorrhage: # Events: 0
  Catheter site haemorrhage: Affected/At Risk: 0/16
  Catheter site haemorrhage: Affected/At Risk (%): (0%)
  Chills: # Events: 1
  Chills: Affected/At Risk: 1/16
  Chills: Affected/At Risk (%): (6.25%)
  Chronic kidney disease: # Events: 0
  Chronic kidney disease: Affected/At Risk: 0/16
  Chronic kidney disease: Affected/At Risk (%): (0%)
  Conjunctival haemorrhage: # Events: 1
  Conjunctival haemorrhage: Affected/At Risk: 1/16
  Conjunctival haemorrhage: Affected/At Risk (%): (6.25%)
  Conjunctivitis: # Events: 1
  Conjunctivitis: Affected/At Risk: 1/16
